The nature of data set [1]: Cytotoxicity against mouse RAW264.7 cells assessed as reduction in cell viability measured after 24 hrs by MTT assay. The data set is classed as cell-based. (Tetrazolium dyes change colour on reduction, which living cells bring about.)
Data set [2] deals with RAW264.7. Nature of the data set: Inhibition of LPS induced NO production in mouse RAW264.7 cells measured after 24 hrs by Griess reagent based assay. It is filed as functional, cell-based. The conditions noted are these: RAW264.7, 24 h. (Nitrite, measured by Griess reagent, commonly stands in for NO production.)

The source of these data is ChEMBL document CHEMBL4834408, “Sesquiterpenoids from Chrysanthemum indicum with Inhibitory Effects on NO Production” (J Nat Prod, 2021).

Each structure is given as a SMILES string.

The term CC50 denotes the concentration giving 50% cytotoxicity. The IC50 is the concentration that gives 50% inhibition. Low readings indicate higher potency, high ones lower potency.

In the case of `C[C@@H]1O[C@@H](OC[C@H]2O[C@@H](Oc3cc(O)c4c(=O)cc(-c5ccc(O)c(O)c5)oc4c3)[C@H](O)[C@@H](O)[C@@H]2O)[C@H](O)[C@H](O)[C@H]1O`, in data set [1], the CC50 at 24 h is above 100 µM. This compound displayed an IC50 in data set [2] above 100 µM. In the case of `O=C(O)[C@H]1O[C@@H](Oc2cc(O)c3c(=O)cc(-c4ccc(O)cc4)oc3c2)[C@H](O)[C@@H](O)[C@@H]1O`, the CC50 at 24 h in data set [1] was above 100 µM. In data set [2], this compound displayed an IC50 above 100 µM. As to `C=C1C(=O)O[C@H]2[C@H]1[C@@H](OC(=O)/C(C)=C\C)CC(C)=C1C[C@@H]3O[C@]3(C)[C@@H]12`, the CC50 at 24 h in data set [1] came out at 21.7 µM. In data set [2], this compound displayed an IC50 of 0.2 µM.

As to `O=C(O)[C@H]1O[C@@H](Oc2cc(O)c3c(=O)cc(-c4ccc(O)c(O)c4)oc3c2)[C@H](O)[C@@H](O)[C@@H]1O`, the cytotoxic concentration (CC50) at 24 h in data set [1] was above 100 µM. The compound also showed an IC50 in data set [2] above 100 µM. Turning to `CC(=O)/C=C/[C@]1(O)C(C)(C)C[C@H](O)C[C@@]1(C)O`, the CC50 at 24 h in data set [1] was above 100 µM. This compound also showed an IC50 in data set [2] of 29.9 µM. As for `C=C1C(=O)O[C@H]2[C@H]1[C@@H](OC(=O)C(C)CC)CC(C)=C1C[C@@H]3O[C@]3(C)[C@@H]12` (stereo partly drawn), the CC50 at 24 h in data set [1] came to 21.5 µM. The IC50 in data set [2] was found to be 3 µM. On the same counts, the results for `C=C1C(=O)O[C@@H]2[C@H]3C(C)=CC(=O)[C@H]3[C@@H](C)C[C@H](OC(=O)/C(C)=C\C)[C@@H]12` are 22.5 µM and 1.8 µM. Regarding `CC1=CC[C@H](C(C)(C)O)CC1=O`, the CC50 at 24 h in data set [1] was 98 µM. The same compound displayed an IC50 in data set [2] of 48.8 µM. For `C=C[C@@](C)(O)C[C@H](O)/C=C(\C)CC(=O)C=C(C)C`, in that order: above 100 µM and 48.4 µM.

Consider `COc1ccc(-c2cc(=O)c3c(O)cc(O[C@@H]4O[C@H](C(=O)O)[C@@H](O)[C@H](O)[C@H]4O)cc3o2)cc1`, for which the CC50 at 24 h in data set [1] was above 100 µM. In data set [2], this compound showed an IC50 of 92.4 µM. On the same counts, the results for `C=C[C@](C)(CCC/C(C)=C/C(=O)C=C(C)C)O[C@@H]1O[C@H](CO)[C@@H](O)[C@H](O)[C@H]1O` are above 100 µM and above 100 µM.

For `C=C1C(=O)O[C@@H]2/C=C(\C)CC/C=C(\C)C[C@H](OC(=O)/C(C)=C\C)[C@@H]12`, the CC50 at 24 h in data set [1] was 27 µM. The IC50 in data set [2] worked out at 9.9 µM. On the same counts, the results for `CC1=CC[C@H]([C@](C)(O)C/C=C/C(C)(C)O)CC1=O` are above 100 µM and above 100 µM. On the same counts, the results for `C=C[C@](C)(CC/C=C(\C)CC(=O)C=C(C)C)O[C@@H]1O[C@H](CO)[C@@H](O)[C@H](O)[C@H]1O` are above 100 µM and above 100 µM. For `C=C[C@](C)(CC/C=C(\C)CC(=O)CC(C)C)O[C@@H]1O[C@H](CO)[C@@H](O)[C@H](O)[C@H]1O`, in that order: above 100 µM and above 100 µM. Consider `C=C[C@](C)(CCC/C(C)=C\C(=O)C=C(C)C)O[C@@H]1O[C@H](CO)[C@@H](O)[C@H](O)[C@H]1O`, for which the CC50 at 24 h in data set [1] was above 100 µM. Further, the IC50 in data set [2] was found to be 97.8 µM.

Take `C=C(C)C(O)CC[C@@](C)(O)[C@H]1CC=C(C)C(=O)C1` (stereo partly drawn): the CC50 at 24 h in data set [1] is above 100 µM. In data set [2], the IC50 is above 100 µM. For the compound `C=C1C(=O)O[C@@H]2[C@H]3C(C)=CC(=O)[C@@H]3[C@@H](C)C[C@H](OC(=O)/C(C)=C\C)[C@@H]12`, in data set [1], the cytotoxic concentration (CC50) at 24 h was above 100 µM. In data set [2], this compound came in with an IC50 of 27 µM. For `COc1ccc(-c2cc(=O)c3c(O)cc(O)cc3o2)cc1` [ACACETIN], in that order: 60.9 µM and 5.9 µM.

Regarding `COc1ccc(-c2cc(=O)c3c(O)cc(O[C@@H]4O[C@H](CO[C@@H]5O[C@@H](C)[C@H](O)[C@@H](O)[C@H]5O)[C@@H](O)[C@H](O)[C@H]4O)cc3o2)cc1` [ACACIIN], the CC50 at 24 h in data set [1] is above 100 µM. In addition, the IC50 in data set [2] is above 100 µM.

For the compound `O=c1cc(-c2ccc(O)cc2)oc2cc(O)cc(O)c12` [APIGENIN], in data set [1], the CC50 at 24 h came to 65.1 µM. In addition, in data set [2], the IC50 worked out at 18.4 µM. Regarding `O=c1cc(-c2ccc(O)cc2)oc2cc(O[C@@H]3O[C@H](CO)[C@@H](O)[C@H](O)[C@H]3O)cc(O)c12` [APIGETRIN], the CC50 at 24 h in data set [1] is above 100 µM. The same compound yielded an IC50 in data set [2] of 53.7 µM. `COc1ccc(-c2cc(=O)c3c(O)cc(O)cc3o2)cc1O` [DIOSMETIN] showed an IC50 in data set [2] of 34.5 µM. `O=c1cc(-c2ccc(O)c(O)c2)oc2cc(O[C@@H]3O[C@H](CO)[C@@H](O)[C@H](O)[C@H]3O)cc(O)c12` [GALUTEOLIN]: the CC50 at 24 h in data set [1] is above 100 µM. In addition, the IC50 in data set [2] is 87.5 µM. On to `COc1ccc([C@@H]2CC(=O)c3c(O)cc(O)cc3O2)cc1O` [HESPERETIN], for which the CC50 at 24 h in data set [1] was above 100 µM. Half-maximal inhibition in data set [2] (IC50) was put at 31.2 µM.

In the case of `CC1(C)C[C@H](O)C[C@@]2(C)OC(=O)C=C12` [LOLIOLIDE], in data set [1], the CC50 at 24 h is above 100 µM. In data set [2], this compound returned an IC50 of 56.7 µM.

Turning to `COc1ccc(-c2cc(=O)c3c(O)cc(O[C@@H]4O[C@H](CO)[C@@H](O)[C@H](O)[C@H]4O)cc3o2)cc1` [TILIANINE], in data set [1], the CC50 at 24 h is above 100 µM. Also, the IC50 in data set [2] amounted to 45.4 µM.
